Where “and” joins values, the source holds several entries; their conditions need not be identical. Equal entries are not always repeated. Toxic doses and inconclusive results are not listed. Rule as the data show it: active = T/C of 150% or more; inactive = T/C below 125%.
System: L1210 leukemia ip in BDF1 mice, survival T/C
Assay: NCI In Vivo Anticancer Drug Screen. Data for tumor model L1210 Leukemia (intraperitoneal) in B6D2F1 (BDF1) mice
Conditions: endpoint: mean survival time, higher = longer survival
Procedure, shortened: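 Mice bearing the transplanted tumor received compound or vehicle. Survival of the treated group was divided by that of the vehicle-treated control group to give the ratio.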

[1] = dose: 100.0 mg/kg/injection, schedule: Q01DX009 (ip), vehicle: saline
[2] = dose: 200.0 mg/kg/injection, schedule: Q01DX009 (ip), vehicle: saline
[3] = dose: 100.0 mg/kg/injection, schedule: Q04DX003 (ip), vehicle: saline with Tween-80
[4] = dose: 200.0 mg/kg/injection, schedule: Q04DX003 (ip), vehicle: saline with Tween-80
[5] = dose: 400.0 mg/kg/injection, schedule: Q04DX003 (ip), vehicle: saline with Tween-80
[6] = dose: 75.0 mg/kg/injection, schedule: Q04DX003 (ip), vehicle: Klucel (hydroxypropylcellulose) (HPC)
[7] = dose: 100.0 mg/kg/injection, schedule: Q01DX001 (ip), vehicle: saline
[8] = dose: 150.0 mg/kg/injection, schedule: Q04DX003 (ip), vehicle: Klucel (hydroxypropylcellulose) (HPC)
[9] = dose: 200.0 mg/kg/injection, schedule: Q01DX001 (ip), vehicle: saline
[10] = dose: 300.0 mg/kg/injection, schedule: Q04DX003 (ip), vehicle: Klucel (hydroxypropylcellulose) (HPC)
[11] = dose: 400.0 mg/kg/injection, schedule: Q01DX001 (ip), vehicle: saline
[12] = dose: 25.0 mg/kg/injection, schedule: Q01DX009 (ip), vehicle: saline with Tween-80

Measured: T/C

O=C(O)CSC(CC(=O)O)C(=O)O (configuration not stated)
inactive: [1] 107 % of control | [2] 108 % of control | dose: 400.0 mg/kg/injection, schedule: Q01DX009 (ip), vehicle: saline 103 % of control

Cc1cc(C)c(OC2=C(c3c(C)cc(C)cc3C)C(=O)c3ccccc32)c(C)c1
inactive: dose: 100.0 mg/kg/injection, schedule: Q01DX001 (ip), vehicle: carboxymethylcellulose (CMC) 91 % of control | dose: 200.0 mg/kg/injection, schedule: Q01DX001 (ip), vehicle: carboxymethylcellulose (CMC) 89 % of control | dose: 400.0 mg/kg/injection, schedule: Q01DX001 (ip), vehicle: carboxymethylcellulose (CMC) 96 % of control

CCC(=O)C(=O)Cc1cc[n+]([O-])c2ccccc12
inactive: dose: 100.0 mg/kg/injection, schedule: Q04DX003 (ip), vehicle: Klucel (hydroxypropylcellulose) (HPC) 102 % of control | dose: 200.0 mg/kg/injection, schedule: Q04DX003 (ip), vehicle: Klucel (hydroxypropylcellulose) (HPC) 97 % of control | dose: 400.0 mg/kg/injection, schedule: Q04DX003 (ip), vehicle: Klucel (hydroxypropylcellulose) (HPC) 113 % of control

OCCN1CCN(CCCN2c3ccccc3Sc3ccc(Cl)cc32)CC1
inactive: dose: 6.25 mg/kg/injection, schedule: Q01DX001 (ip), vehicle: Klucel (hydroxypropylcellulose) (HPC) 97 % of control | dose: 12.5 mg/kg/injection, schedule: Q01DX001 (ip), vehicle: Klucel (hydroxypropylcellulose) (HPC) 105 % of control | dose: 25.0 mg/kg/injection, schedule: Q01DX001 (ip), vehicle: Klucel (hydroxypropylcellulose) (HPC) 111 % of control | dose: 200.0 mg/kg/injection, schedule: Q04DX002 (ip), vehicle: Klucel (hydroxypropylcellulose) (HPC) 108 % of control

CC(=O)COc1ccc([N+](=O)[O-])cc1
inactive: dose: 100.0 mg/kg/injection, schedule: Q01DX001 (ip), vehicle: saline with Tween-80 100 % of control | dose: 200.0 mg/kg/injection, schedule: Q01DX001 (ip), vehicle: saline with Tween-80 102 % of control | dose: 400.0 mg/kg/injection, schedule: Q01DX001 (ip), vehicle: saline with Tween-80 98 % of control

C[Se]c1nc2c(=O)[nH]c(N)nc2n1C1OC(CO)C(O)C1O (configuration not stated)
inactive: dose: 100.0 mg/kg/injection, schedule: Q01DX005 (ip), vehicle: saline 107 % of control | dose: 200.0 mg/kg/injection, schedule: Q01DX005 (ip), vehicle: saline 102 % of control

Nc1nc(N)c2c(n1)CN(Cc1ccccc1)C2
inactive: dose: 25.0 mg/kg/injection, schedule: Q01DX001 (ip), vehicle: carboxymethylcellulose (CMC) 103 % of control | dose: 50.0 mg/kg/injection, schedule: Q01DX001 (ip), vehicle: carboxymethylcellulose (CMC) 103 % of control

Cc1ccc(NCC(=O)O)cc1
inactive: dose: 100.0 mg/kg/injection, schedule: Q01DX Z (ip), vehicle: methylcellulose (MC) 101 % of control | dose: 200.0 mg/kg/injection, schedule: Q01DX Z (ip), vehicle: methylcellulose (MC) 101 % of control

CCCCOCC1CO1 (configuration not stated)
inactive: [3] 92 % of control | [4] 95 % of control | [5] 98 % of control

CCN(CCNC(C)(C)[P+](=O)O)c1ccccc1
inactive: [6] 100 % of control | [7] 105 % of control | [8] 96 % of control | [9] 105 % of control | [10] 110 % of control | [11] 102 % of control

N#CSCc1ccc(Cl)cc1
inactive: [12] 92 % of control

CCCCCCCC1N(C)CCCN1C
inactive: [12] 88 % of control | dose: 25.0 mg/kg/injection, schedule: Q04DX003 (ip), vehicle: saline with Tween-80 93 % of control | dose: 50.0 mg/kg/injection, schedule: Q01DX009 (ip), vehicle: saline with Tween-80 95 % of control | dose: 50.0 mg/kg/injection, schedule: Q04DX003 (ip), vehicle: saline with Tween-80 96 % of control | [3] 95 % of control and 92 % of control

O=NN(CCCC(=O)O)C(=O)NCCCC(=O)O
inactive: dose: 25.0 mg/kg/injection, schedule: Q01DX Z (ip), vehicle: carboxymethylcellulose (CMC) 103 % of control | dose: 50.0 mg/kg/injection, schedule: Q01DX Z (ip), vehicle: carboxymethylcellulose (CMC) 90 % of control | dose: 100.0 mg/kg/injection, schedule: Q01DX Z (ip), vehicle: carboxymethylcellulose (CMC) 100 % of control | dose: 200.0 mg/kg/injection, schedule: Q01DX Z (ip), vehicle: carboxymethylcellulose (CMC) 94 % of control | dose: 300.0 mg/kg/injection, schedule: Q01DX Z (ip), vehicle: carboxymethylcellulose (CMC) 95 % of control

CC(C)(C)C1CCNC(=O)CC1 (configuration not stated)
inactive: dose: 10.0 mg/kg/injection, schedule: Q01DX009 (ip), vehicle: Klucel (hydroxypropylcellulose) (HPC) 95 % of control | dose: 20.0 mg/kg/injection, schedule: Q01DX009 (ip), vehicle: Klucel (hydroxypropylcellulose) (HPC) 103 % of control | dose: 20.0 mg/kg/injection, schedule: Q04DX003 (ip), vehicle: Klucel (hydroxypropylcellulose) (HPC) 107 % of control | dose: 40.0 mg/kg/injection, schedule: Q04DX003 (ip), vehicle: Klucel (hydroxypropylcellulose) (HPC) 103 % of control | dose: 75.0 mg/kg/injection, schedule: Q01DX001 (ip), vehicle: carboxymethylcellulose (CMC) 102 % of control | dose: 150.0 mg/kg/injection, schedule: Q01DX001 (ip), vehicle: carboxymethylcellulose (CMC) 102 % of control | dose: 300.0 mg/kg/injection, schedule: Q01DX001 (ip), vehicle: carboxymethylcellulose (CMC) 96 % of control

Cc1cccnc1Nc1ncccc1C
inactive: dose: 50.0 mg/kg/injection, schedule: Q01DX009 (ip), vehicle: saline 100 % of control | [1] 96 % of control | [2] 103 % of control

C/C(=N/N=C(N)N)c1cccc(O)c1
inactive: dose: 15.0 mg/kg/injection, schedule: Q01DX Z (ip), vehicle: methylcellulose (MC) 107 % of control | dose: 30.0 mg/kg/injection, schedule: Q01DX Z (ip), vehicle: methylcellulose (MC) 110 % of control | dose: 30.0 mg/kg/injection, schedule: Q01DX Z (oral), vehicle: methylcellulose (MC) 89 % of control | dose: 60.0 mg/kg/injection, schedule: Q01DX Z (ip), vehicle: methylcellulose (MC) 97 % of control

CCC[CH2][Pb]([Cl])([CH2]CCC)[CH2]CCC
inactive: dose: 6.25 mg/kg/injection, schedule: Q01DX009 (ip), vehicle: saline with Tween-80 90 % of control

CCOc1ccccc1NC(=O)CC(C)=O
inactive: dose: 100.0 mg/kg/injection, schedule: Q01DX009 (ip), vehicle: Klucel (hydroxypropylcellulose) (HPC) 89 % of control | dose: 200.0 mg/kg/injection, schedule: Q01DX009 (ip), vehicle: Klucel (hydroxypropylcellulose) (HPC) 88 % of control | dose: 400.0 mg/kg/injection, schedule: Q01DX009 (ip), vehicle: Klucel (hydroxypropylcellulose) (HPC) 93 % of control

O=C(CCCC(=O)NNC(=S)Nc1ccccc1)NNC(=S)Nc1ccccc1
inactive: dose: 50.0 mg/kg/injection, schedule: Q01DX001 (ip), vehicle: saline 100 % of control | [7] 100 % of control | [9] 97 % of control | [11] 100 % of control

C=COCCN1CCN(CCCN2c3ccccc3Sc3ccc(C(F)(F)F)cc32)CC1
inactive: dose: 3.13 mg/kg/injection, schedule: Q04DX003 (ip), vehicle: saline 102 % of control | dose: 6.25 mg/kg/injection, schedule: Q04DX003 (ip), vehicle: saline 102 % of control | dose: 12.5 mg/kg/injection, schedule: Q04DX003 (ip), vehicle: saline 107 % of control

c1ccc2c(c1)Sc1ccccc1N2C[C@H]1CCCN2CCCC[C@H]12
inactive: dose: 75.0 mg/kg/injection, schedule: Q01DX009 (ip), vehicle: Klucel (hydroxypropylcellulose) (HPC) 102 % of control | [6] 102 % of control | dose: 150.0 mg/kg/injection, schedule: Q01DX009 (ip), vehicle: Klucel (hydroxypropylcellulose) (HPC) 91 % of control | [8] 97 % of control | dose: 300.0 mg/kg/injection, schedule: Q01DX009 (ip), vehicle: Klucel (hydroxypropylcellulose) (HPC) 89 % of control | [10] 102 % of control

COC(=O)c1ccncc1
inactive: dose: 100.0 mg/kg/injection, schedule: Q04DX003 (ip), vehicle: saline 101 % of control | dose: 200.0 mg/kg/injection, schedule: Q04DX003 (ip), vehicle: saline 98 % of control | dose: 400.0 mg/kg/injection, schedule: Q04DX003 (ip), vehicle: saline 104 % of control

CCCCCCc1ccccc1
inactive: dose: 100.0 mg/kg/injection, schedule: Q01DX009 (ip), vehicle: saline with Tween-80 98 % of control | [3] 105 % of control | dose: 200.0 mg/kg/injection, schedule: Q01DX009 (ip), vehicle: saline with Tween-80 98 % of control | [4] 94 % of control | dose: 400.0 mg/kg/injection, schedule: Q01DX009 (ip), vehicle: saline with Tween-80 88 % of control | [5] 95 % of control
